Consider two molecules from US20070196816A1, “Engineered stimulus-responsive switches” (priority 2000, published 2007).

Experiment [1] addresses GST-Bcl2 (Homo sapiens, UniProt P10415). Particulars: specific binding; Rodi et al.; cited from earlier work.
For experiment [2], the system named is lambda phage. Description: Immunity experiments: plaque formation on lambda phage infection of LE392 cells containing engineered repressors, with and without taxol. It is filed as cell-based. The conditions noted are these: 30° C., scored at 24 and 48 hours. From the text: There are multiple ways to evaluate lambda repressor function. One such method exploits the central role of the repressor in controlling the decision of lambda phage to enter the lytic or the lysogenic phase. In the presence of a high concentration of functional cI in the bacterial cell, entering lambda phage are pushed into the lysogenic phase. In the absence of cI, bacteria are susceptible to infection by lambda phage: the lysed cells manifest as plaques on a bacterial lawn. The level of functional cI in a cell determines whether incoming phage will continue to enter the lytic cycle or choose the lysogenic cycle, when the phage is integrated into the host genome. Cells with functional cI can thus display immunity to phage superinfection. In addition it is also possible to conduct in vitro experiments, such as electrophoretic mobility shift assays where binding of purified protein to labeled oligonucleotide duplexes can be monitored.
The repressors were placed under the control of a constitutive promoter (tet promoter) in a pUNI (Invitrogen) donor vector. […]
Five sets of experiments have been done with each of the cI-bZIP, TBD-cI-bZIP, and TBD-ΔK-cI-bZIP constructs. […] Plaque phenotype was scored at 24 and 48 hours of incubation at 30° C. The number of plaques was counted for three experiments using 3-5 replicates for each set.

Sequence of GST-Bcl2 (P10415 whole entry): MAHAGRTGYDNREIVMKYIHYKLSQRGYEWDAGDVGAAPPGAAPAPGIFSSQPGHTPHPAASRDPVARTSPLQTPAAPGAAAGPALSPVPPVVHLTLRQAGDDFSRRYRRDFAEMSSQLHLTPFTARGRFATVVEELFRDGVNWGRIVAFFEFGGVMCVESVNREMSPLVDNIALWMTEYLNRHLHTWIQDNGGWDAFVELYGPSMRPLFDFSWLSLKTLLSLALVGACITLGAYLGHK

`CC(=O)O[C@H]1C(=O)[C@@]2(C)[C@H]([C@H](OC(=O)c3ccccc3)[C@]3(O)C[C@H](OC(=O)[C@H](O)[C@@H](NC(=O)c4ccccc4)c4ccccc4)C(C)=C1C3(C)C)[C@]1(OC(C)=O)CO[C@@H]1C[C@@H]2O` [taxol]: the “Kd of taxol binding to GST-Bcl2” value in experiment [1] is given as “nanomolar range”.

Regarding “cI-bZIP: chimeric repressor: DNA binding domain and linker of lambda repressor (cI aa 1-132) fused to GCN4 leucine zipper; SEQ ID NO: 12”, the “Change of plaque phenotype/size on addition of taxol” value in experiment [2] (100 uM taxol in culture and top agar) is given as “not changed”. Moreover, the “Plaque phenotype (size) on infection with lambda phage” value in experiment [2] (LE392 cells containing the repressor, absence of taxol) was “miniscule plaques barely visible to the eye”.
